# From patent US10517933B2, “Method of treating androgen receptor negative prostate tumors and their metastases” (DREXEL UNIVERSITY, priority 2015, dated 2019)
# Entries after “also recorded” stand apart in the source; their conditions may differ.
# Columns and labels:
# [1] = test system: other members of the interleukin-1 family, including interleukin-1 alpha; settings: cited from earlier work
# interleukin-1β = settings: cited from earlier work
# [2] = test system: mouse models of acute gout; settings: in vivo; cited from earlier work
# [3] = test system: AR(−)/IL1β(+) human prostate cancer cells; experiment: skeletal metastasis model: human prostate cancer cells inoculated via the left cardiac ventricle of mice; assay type: in vivo, mouse; settings: subcutaneous anakinra from 24 hours before inoculation, then daily, FIGS. 3A-3B
# Method: Male C.B17-SC mice (Taconic) at six to eight weeks of age were anesthetized with ketamine (80 mg/kg) and xylazine (10 mg/kg) prior being inoculated with cancer cells via the left cardiac ventricle. For anakinra treatment, animals received an initial subcutaneous dose of vehicle (PBS) or anakinra (Swedish Orphan Biovitrum) 24 hours prior to cancer cell inoculation, then additional doses at the time of xenograft and daily thereafter until sacrifice.
# Prior to each weekly imaging session, animals were injected IP with 150 mg/kg D-Luciferin (PerkinElmer) and allowed to rest for ten minutes, then anesthetized using 3% isoflurane and transferred to the chamber of an IVIS Lumina XR (PerkinElmer), where they received 2% isoflurane throughout image acquisition. […]
# Fluorescent images of skeletal metastases were collected as described in Liu et al., 2013, Cancer Res. 73:3297-305. In experiments assessing arrival/colonization of the bone, animals were sacrificed and femora and tibia were imaged and processed using Nuance software and a standardized spectral library and total GFP-positive DTCs counted in the knee joint of each animal. Lung tissues from the same animals were sectioned at 80 μm at intervals across the organ and images of five random fields analyzed as described. […]
# [4] = test system: human bone mesenchymal stem cells; experiment: induction of Carcinoma Associated Fibroblasts phenotype in human bone mesenchymal stem cells by IL1β or PC3-ML conditioned medium; assay type: cell-based; settings: hMSCs exposed to IL1β or conditioned medium from PC3-ML cells
# Method: DU-145, 22Rv1. LNCaP, and VCaP human prostate cancer cell lines were purchased from ATCC: the PC3-ML cell line was derived from the parental PC-3 cell line as described in Wang M, Stearns M E, Isolation and characterization of PC-3 human prostatic tumor sublines which preferentially metastasize to select organs in S.C.I.D. mice. Differentiation. 1991; 48:115-25. All cell lines were authenticated by short tandem repeat profiling by IDEXX Radil and/or DDC Medical. Cells were cultured in Dulbecco's Modified Eagle Medium (DU-145, VCaP, and PC3-ML) or RPMI-1460 (22Rv1 and LNCaP) containing 10% fetal bovine serum and 0.1% gentamicin. Bone marrow-derived Human Mesenchymal Stem cells (Lonza) were used between passage 5 and 8 and cultured in α-MEM supplemented with 10% FBS, 1 ng/ml bFGF (R&D), and 0.1% gentamicin. Each cell line was cultured at 37° C. and 5% CO2 and discarded 10 passages following thawing. […]
# Cell lysates were obtained and Western Blotting analysis was performed as previously described. […] Chemiluminescent signals were obtained using SuperSignal West Femto substrate (Pierce) and detected with the Fluorochem 8900 imaging system and related software. […]
compound,measurement,setting,value
Canakinumab: a human monoclonal antibody targeted at interleukin-1 beta,cross-reactivity with other members of the interleukin-1 family,[1],no cross-reactivity
"CSc1ccc(-c2nn(Cc3ccccc3)c(=O)cc2-c2ccc(Cl)cc2)cc1 [K-832, 2-benzyl-5-(4-chlorophenyl)-6-[4-(methylthio)phenyl]-2H-pyridazin-3-one]",inhibitory activity against production of interleukin-1β,interleukin-1β,high inhibitory activity
XOMA-052: a potent anti-IL1β humanized neutralizing antibody,activity in mouse models of acute gout,[2],active
"anakinra: recombinant, non-glycosylated version of human IL1 receptor antagonist prepared from cultures of genetically modified E. coli",progression at the skeletal level of human prostate cancer cells (bone metastatic tumor burden),[3],significantly impaired; also recorded: much less prone to skeletal colonization
same,morphological changes in alpha smooth muscle actin (CAF phenotype),[4]; FIG. 4A,inhibited
same,expression of the S100 A4 marker (CAF phenotype),[4]; FIG. 4B,inhibited
